Read-outs that look alike come from different tables or passages of the source.
Key:
HIF-1α and VEGF = test: Western blot of HIF-1α and VEGF in pancreatic cancer cell lines; type: cell-based; settings: 50 nM, 24 h
Description: It's postulated that functional inhibition of Hsp90 by ganetespib can inhibit angiogenesis and growth in vitro and in vivo models of pancreatic cancer. PANC-1 and HPAC cell lines were treated with vehicle or G (50 nM) for 24 h and lysates were analyzed by Western blot. Egg CAM and matrigel plug assays were performed to quantify the effects of ganetespib on angiogenesis. Efficacy of ganetespib (100 mg/kg) was assessed in mice bearing HPAC and ASPC-1 xenograft.
Primary antibodies specific to Hsp90, HIF-1α, VEGF, Actin and HRP conjugated secondary antibodies (Santa Cruz Biotechnology, California and Cell Signaling Technology, USA) were used for Western blot. Ganetespib was provided by Synta Pharmaceuticals, Lexington, Mass. and Matrigel was purchased from BD Biosciences.
Cells were harvested at the end of treatment and lysed in the RIPA protein extraction buffer (Sigma-Aldrich, Saint Louis, Mo., USA) containing the protease inhibitor cocktail. Equal amounts of protein fractions of lysates were resolved over SDS-PAGE and transferred on to PVDF membrane. Membranes were incubated with primary antibodies followed by HRP-conjugated secondary antibodies. Bound antibodies were visualized using enhanced chemiluminescence. To confirm equal loading, membranes were verified and re-probed with an antibody specific for the housekeeping gene, anti-β-actin.

[1] = system: AGS (wt-p53 and mut-KRAS); test: 72 hr viability by CTG, gastric cancer cells; type: cell-based; settings: viability by CTG (upper)
Description: (§1) Many of the oncoproteins associated with gastric cancer and Hsp90 client proteins including HER2, MET, RAS and the FGFR family. Ganetespib was evaluated for its effect on the growth of AGS (wt-p53 and mut-KRAS) and MKN45 (wt-p53, wt-KRAS, MET amplified) gastric cancer cells.

[2] = system: MKN45 (wt-p53, wt-KRAS, MET amplified); test: 72 hr viability by CTG, gastric cancer cells; type: cell-based; settings: Homo sapiens, MKN-45, viability by CTG (upper)
Description: as §1

A549 NSCLC cells = test: Mouse xenograft tumor model, ganetespib and BEZ235 (Example 9); type: in vivo, mice; settings: ganetespib 50 mg/kg weekly i.v.; BEZ235 10 mg/kg 5 times a week p.o.; particularly at later time points; FIG. 8
Text: Female immunodeficient CD-1 (nude) mice (Charles River Laboratories, Wilmington, Mass.) were maintained in a pathogen-free environment, and all in vivo procedures were approved by the Synta Pharmaceuticals Corp. Institutional Animal Care and Use Committee. A549 NSCLC cells (7.5×10^6) were subcutaneously implanted into the animals. Mice bearing established tumors (100-200 mm^3) were randomized into treatment groups of 8 and i.v. dosed via the tail vein with either vehicle, ganetespib formulated in 10/18 DRD (10% DMSO, 18% Cremophor RH 40, 3.6% dextrose, 68.4% water) or p.o. dosed with BEZ235 formulated in PEG300/NMP (90% PEG300, 10% N-Methylpyrrolidone). Animals were treated with ganetespib at 50 mg/kg weekly or BEZ235 at 10 mg/kg 5 times a week, either alone or in combination. Tumor growth inhibition was determined as described previously. See Proia et al, PLoS One. 2011; 6(4):e18552.

RCC = settings: cited from earlier work
colon cancer first line = settings: cited from earlier work
colon cancer second line = settings: cited from earlier work
[3] = system: Chk1 and Chk2 phosphorylation; test: Western blot of Chk1 and Chk2 phosphorylation after bleomycin in Detroit 562 cells; type: cell-based; settings: Detroit 562, bleomycin (5 μM)
Description: Protein expression was measured at the indicated time points after bleomycin treatment.
Cell extracts from Detroit 562 head and neck cancer cells were treated with 100 nM of ganetespib 24 hours prior to receiving the DNA damaging agent bleomycin (5 μM). Protein expression was measured at the indicated time points after bleomycin treatment.

pancreatic cancer = settings: cited from earlier work
prostate cancer = settings: cited from earlier work
melanoma = settings: cited from earlier work

With “3-2,4-dihydroxy-5-isopropyl-phenyl)-4-(1-methyl-indol-5-yl)-5-hydroxy-[1,2,4]triazole [ganetespib]” the “HIF-1α and VEGF protein levels” value (HIF-1α and VEGF) was “significant reduction”.

For `C=CCNC1=C2C[C@@H](C)C[C@H](OC)[C@H](O)[C@@H](C)/C=C(\C)[C@H](OC(N)=O)[C@@H](OC)/C=C\C=C(/C)C(=O)NC(=CC1=O)C2=O` [17-AAG, 17-allyamino-geldanamycin], the IC50 [1] was 50 nM and the IC50 [2] was 1 nM.

For `Cn1c(=O)n(-c2ccc(C(C)(C)C#N)cc2)c2c3cc(-c4cnc5ccccc5c4)ccc3ncc21` [BEZ235, reference compound], the “Average tumor volume as compared to vehicle” value (A549 NSCLC cells) was “significantly reduced”.

With `CC(=O)O[C@@]12CO[C@@H]1C[C@H](O)[C@@]1(C)C(=O)[C@H](O)C3=C(C)[C@@H](OC(=O)[C@H](O)[C@@H](NC(=O)OC(C)(C)C)c4ccccc4)C[C@@](O)([C@@H](OC(=O)c4ccccc4)[C@H]21)C3(C)C` [Docetaxel] the IC50 [1] was 0.3 nM and the IC50 [2] was 0.1 nM.

In the case of `CO[C@H]1C[C@@H]2CC[C@@H](C)[C@@](O)(O2)C(=O)C(=O)N2CCCC[C@H]2C(=O)O[C@H]([C@H](C)C[C@@H]2CC[C@@H](OC(=O)C(C)(CO)CO)[C@H](OC)C2)CC(=O)[C@H](C)/C=C(\C)[C@@H](O)[C@@H](OC)C(=O)[C@H](C)C[C@H](C)/C=C/C=C/C=C/1C` [temsirolimus], the “OS HR” value (RCC; high LDH, P=0.002) is listed as 0.56 and the “OS HR” value (RCC; normal LDH, P=0.51) is listed as 0.90.

In the case of `Clc1ccc(Nc2nnc(Cc3ccncc3)c3ccccc23)cc1` [vatalanib], the “PFS HR” value (colon cancer first line; LDH group not given, P=0.188) is given as 0.88, the “PFS HR” value (colon cancer first line; high LDH, P=0.009) is given as 0.67 and the “PFS HR” value (colon cancer second line; LDH group not given, P=0.01) is given as 0.83. For the same compound, the “PFS HR” value (colon cancer second line; high LDH, P<0.001) was 0.63.

With Bleomycin [reference compound] the “Chk1 and Chk2 phosphorylation” value [3] was “increased both Chk1 and Chk2 phosphorylation”.

For “bevacizumab: anti-cancer agent cited from large randomized phase 2 and phase 3 studies”, the “OS HR” value (pancreatic cancer; high LDH, 95% CI 0.43-0.82) is listed as 0.59, the HR (pancreatic cancer; normal LDH, 95% CI 0.78-1.24) is listed as 0.98 and the “OS HR” value (prostate cancer; high LDH, P=0.029) is listed as 0.80. The “OS HR” value (prostate cancer; normal LDH, P=0.87) was 1.02, the “OS HR” value (melanoma; high LDH, 95% CI 0.32-0.88) was 0.53 and the “OS HR” value (melanoma; normal LDH, 95% CI 0.73-1.25) was 1.25.

Reference: patent publication US20150253330A1, “PRE-SELECTION OF SUBJECTS FOR THERAPEUTIC TREATMENT WITH AN HSP90 INHIBITOR BASED ON HYPOXIC STATUS” (Synta Pharmaceuticals Corp., priority 2012, published 2015)
